The text below walks through data of patent publication US20170298380A1, “IMIDAZOLINONE HERBICIDE RESISTANT BORAGE” (Bioriginal Food & Science Corp., priority 2016, published 2017).

SMILES strings stand for the structures. “Also recorded” adds a separate entry of the source. Where two headings read alike, the source gives them in different places.

In data set [1] the test system is M4 homozygous imidazolinone-resistant borage (AHAS1 mutant). It counts as in vivo, Borago officinalis. As to conditions: AHAS1 mutant line, 2X of the recommended rate, 21 days after spraying. The protocol: Adjuvant reagent for each herbicide was added into spray solution accordingly. Sprayed M4 borage plants were visually evaluated at 21 days after spraying by comparing with wild-type controls.

Data set [2] relates to AHAS enzyme of homozygous resistant borage (AHAS1 mutant). Put plainly: In vitro AHAS activity assay, resistant (AHAS1 mutant) borage leaf protein extract. The class given is biochemical, Borago officinalis. As to conditions: across all imazamox concentrations (0-625 μM). The source says:
(§1) The herbicide imazamox is an inhibitor of the AHAS enzyme. […] It has been shown from the above Examples that the AHAS1 mutant borage line can tolerate two times the recommended dosage of “Solo” herbicide and the tolerance is caused by the single nucleotide mutation of the AHAS1 gene. As such, the AHAS activity level of the mutant plants would provide further evidence to support the conclusion. AHAS enzyme activity is generally measured using a discontinuous colorimetric assay based on the method developed by Singh et al. (Singh B K, et al. Assay of acetohydroxyacid synthase. Analytical Biochemistry 171 (1988) 173-179). In this method, the crude protein is incubated with the substrate for a fixed time to generate intermediate acetolactate that is then converted to acetoin under decarboxylation. Finally, the reaction of acetoin with creatine and α-naphthol forms a pink-colored product which can be measured at 520 nm wavelength in a spectrometer. As a result, the AHAS activity level can be estimated based on the color density. See Duggleby R G and Pang S S. (2000) supra. […]
(§2) The gummy protein layer was re-dissolved in 1.4 mL incubation buffer containing 50 mM K2HPO4 buffer (pH 7.0), 100 mM sodium pyruvate, 10 mM MgCl2, 1 mM TPP and 1 μM FAD. The amount of protein in each sample was determined immediately by the Bio-Rad protein assay using a dye reagent (#500-0006). […]

Data set [3] deals with AHAS enzyme of susceptible borage (wild-type). The data set is described as follows: In vitro AHAS activity assay, susceptible (wild-type) borage leaf protein extract. The class given is biochemical, Borago officinalis. As to conditions: 625 μM imazamox.
From the text: as §1, §2

The subject of a further data set is borage seeds (M1). It counts as in vivo, Borago officinalis. The protocol:
Approximately 164000 borage seeds were divided into 6 groups for mutagenesis. The seeds (M1) were soaked in 0.5%, 1.0% and 1.5% (v/v) of EMS solutions for 8 hours and 16 hours respectively, and then rinsed with tap water for 4 hours. After washing, the seeds are dried with paper towel. The mutagenized seeds were sowed in 48 plots in a research farm in Saskatoon, SK, in June, 2012. Each plot was 7.5×1.5 m in size and sowed 86 g of mutagenized seeds. M1 borage plants were grown to maturity and M2 seeds were harvested by groups according to the EMS treatments.

On to `COc1nn(C(=O)[N-]S(=O)(=O)c2ccccc2OC(F)(F)F)c(=O)n1C.[Na+]` [flucarbazone sodium], for which, in data set [1], the “level of resistance / tolerance (in words)” value was “some tolerance”.
As for `COCc1cnc(C2=NC(C)(C(C)C)C(=O)N2)c(C(=O)O)c1` (stereo not shown) [imazamox, 2-[4,5-dihydro-4-methyl-4-(1-methylethyl)-5-oxo-1H-imidazol-2-yl]-5-(methoxymethl)-3-pyridinecarboxylic acid.], the “level of resistance / tolerance (in words)” value in data set [1] is recorded as “strong resistance; also recorded: equally strong resistant level”. Also, the “AHAS activity of mutant compared with wild type” value in data set [2] is listed as “significantly higher AHAS activity than the wild type borage”. In addition, the AHAS activity retained result in data set [3] was “zero and completely inhibited”.
As to `CCOS(C)(=O)=O` [EMS, ethyl methanesulfonate], the “Germination Rate (%)” value in the data set on borage seeds (M1) (0.5% EMS 8 hrs) was 19%; in the data set with borage seeds (M1) (0.5% EMS 16 hrs), 8%; in the data set with borage seeds (M1) (1.0% EMS 8 hrs) it was 15%; with borage seeds (M1) (1.0% EMS 16 hrs) it was 9%; in the data set on borage seeds (M1) (1.5% EMS 8 hrs), 11%; with borage seeds (M1) (1.5% EMS 16 hrs), 8%. Also, the germination rate entry in the data set on borage seeds (M1) (all EMS-treated M1 seeds sown in the field) is recorded as “about 12%”. Moreover, the “sterility of M1” value in the data set on borage seeds (M1) (in vivo) is given as “pronounced sterility”.
Turning to `CCc1cnc(C2=NC(C)(C(C)C)C(=O)N2)c(C(=O)O)c1` (stereo not shown) [imazethapyr, 2-[4.5-dihydro-4-methyl-4-(1-methylethyl)-5-oxo-1H-imidazol-2-yl]-5-ethyl-3-pyridinecarboxylic acid], in data set [1], the “level of resistance / tolerance (in words)” value is “strong resistance; also recorded: equally strong resistant level”.
